In patent US20260297070A1, “CYCLIC [COMPOUND LEFT OUT] WRN INHIBITORS” (Nimbus Wadjet, Inc., priority 2023, published 2026) one finds IC50 data, which are given here for 25 molecules.

SMILES strings stand for the structures.

T1 sequence (Q14191 with tags, fused parts or gaps L1074F limits assumed): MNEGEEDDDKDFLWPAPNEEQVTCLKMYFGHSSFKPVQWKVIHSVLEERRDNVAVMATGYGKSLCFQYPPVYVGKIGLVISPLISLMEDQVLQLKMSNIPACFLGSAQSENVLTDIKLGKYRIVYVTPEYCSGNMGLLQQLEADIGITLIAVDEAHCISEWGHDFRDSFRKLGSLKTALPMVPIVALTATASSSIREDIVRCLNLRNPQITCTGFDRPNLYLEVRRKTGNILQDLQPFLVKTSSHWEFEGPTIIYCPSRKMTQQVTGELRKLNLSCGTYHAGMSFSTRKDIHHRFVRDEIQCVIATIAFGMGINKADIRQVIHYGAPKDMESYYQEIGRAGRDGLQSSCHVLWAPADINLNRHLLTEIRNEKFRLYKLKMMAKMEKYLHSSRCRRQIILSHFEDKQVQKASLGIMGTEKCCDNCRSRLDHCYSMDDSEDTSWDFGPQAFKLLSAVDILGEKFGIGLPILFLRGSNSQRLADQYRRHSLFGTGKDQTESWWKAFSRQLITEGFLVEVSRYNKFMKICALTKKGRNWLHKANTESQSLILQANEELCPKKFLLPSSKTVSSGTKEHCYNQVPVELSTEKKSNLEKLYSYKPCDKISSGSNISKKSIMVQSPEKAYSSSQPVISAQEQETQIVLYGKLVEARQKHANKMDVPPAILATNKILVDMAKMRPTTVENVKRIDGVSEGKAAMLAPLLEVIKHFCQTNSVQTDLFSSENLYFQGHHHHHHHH

This test concerns the target T1, human Werner helicase (WRN-BV08, Uniprot Q14191, amino acids 517-1235 with L1074F point mutation) (Homo sapiens, UniProt Q14191, L1074F).
T1 construct: Uniprot Q14191, amino acids 517-1235 with L1074F point mutation; TEV-cleavable 8×His (C, cleaved yes); made in house; host or cells: Sf9 insect cells (baculovirus)
Briefly: WRN (BV08) ADP-Glo Assay. Type of test: biochemical. To be noted: 0.15 nM WRN, 5 μM ATP, 0.1 nM DNA duplex, 15 min preincubation, 60 min at 25° C., pH 7.5, 1% DMSO; read-out: ADP-Glo_hWRN_IC50. Put shortly:
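0.15 nM WRN (aa 517-1235, L1074F, Sf9-expressed, tag cleaved) preincubated 15 min at 25 °C with compound, then 5 μM ATP and 0.1 nM DNA duplex added for 60 min. Buffer: 20 mM Bicine pH 7.5, 1 mM MgCl2, 10 mM KCl, 1 mM TCEP; 1% DMSO. ADP-Glo luminescence; IC50 by 4-parameter fit.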
As to `CNC(=O)C(C(=O)N(Cc1ccnc(C(C)(C)O)c1)C1C=CS(=O)(=O)C1)c1ccc(-c2ccc(F)c(F)c2)cc1F` (single isomer, unassigned) [I-690, (2R**)-N′-[(3R*)-1,1-dioxo-2,3-dihydro-1lambda6-thiophen-3-yl]-N′-{[2-(2-hydroxypropan-2-yl)pyridin-4-yl]methyl}-N-methyl-2-{3,3′,4′-trifluoro-[1,1′-biphenyl]-4-yl}propanediamide], the IC50 is 0.5 to 5 µM.
The value for `COc1cc(CN(C(=O)C(c2ccc(-c3ccc(F)c(F)c3)cc2F)n2nccc2C)[C@@H]2C=CS(=O)(=O)C2)ccn1` (single isomer, unassigned) [I-749, (2R*)-N-[(3R)-1,1-dioxo-2,3-dihydro-1lambda6-thiophen-3-yl]-N-[(2-methoxypyridin-4-yl)methyl]-2-(5-methyl-1H-pyrazol-1-yl)-2-{3,3′,4′-trifluoro-[1,1′-biphenyl]-4-yl}acetamide] was 0.5 to 5 µM; that for `O=C(N(Cc1ccncc1)C1C=CS(=O)(=O)C1)C12CC(c3cccc(C(F)(F)F)c3)(C1)C2F` (stereo not shown) [I-586, N-(1,1-dioxo-2,3-dihydro-1lambda6-thiophen-3-yl)-2-fluoro-N-[(pyridin-4-yl)methyl]-3-[3-(trifluoromethyl)phenyl]bicyclo[1.1.1]pentane-1-carboxamide] was above 50 µM.
As for `O=C(Cn1c(=O)n(C2=CCCCC2)c2ccccc21)N(Cc1ccncc1)C1C=CS(=O)(=O)C1` (stereo not shown) [I-680, 2-[3-(cyclohex-1-en-1-yl)-2-oxo-2,3-dihydro-1H-1,3-benzodiazol-1-yl]-N-(1,1-dioxo-2,3-dihydro-1lambda6-thiophen-3-yl)-N-[(pyridin-4-yl)methyl]acetamide], the IC50 is above 50 µM.
With `CN(C)C(=O)CC(C(=O)N(Cc1ccncc1)C1C=CS(=O)(=O)C1)c1ccc(-n2cccc2)cc1` (stereo not shown) [I-551, N-(1,1-dioxo-2,3-dihydro-1lambda6-thiophen-3-yl)-N′,N′-dimethyl-N-[(pyridin-4-yl)methyl]-2-[4-(1H-pyrrol-1-yl)phenyl]butanediamide], the IC50 is above 50 µM.
The value for `COc1cc(CC(=O)N(Cc2ccncc2)C2C=CS(=O)(=O)C2)cc(OC)c1Br` (stereo not shown) [I-631, 2-(4-bromo-3,5-dimethoxyphenyl)-N-(1,1-dioxo-2,3-dihydro-1lambda6-thiophen-3-yl)-N-[(pyridin-4-yl)methyl]acetamide] was above 50 µM.
As to `O=C(Cn1ncc2cc(C(F)(F)F)ccc21)N(Cc1ccncc1)C1C=CS(=O)(=O)C1` (stereo not shown) [I-590, N-(1,1-dioxo-2,3-dihydro-1lambda6-thiophen-3-yl)-N-[(pyridin-4-yl)methyl]-2-[5-(trifluoromethyl)-1H-indazol-1-yl]acetamide], the IC50 was 5 to 10 µM.
The value for `COc1cc(CN(C(=O)C(O/C=C/S(C)(=O)=O)c2ccc(-c3ccc(F)c(F)c3)cc2F)[C@@H]2C=CS(=O)(=O)C2)ccn1` (single isomer, unassigned) [I-804, (2R*)-N-[(3R)-1,1-dioxo-2,3-dihydro-1lambda6-thiophen-3-yl]-2-{[(1E)-2-methanesulfonylethenyl]oxy}-N-[(2-methoxypyridin-4-yl)methyl]-2-{3,3′,4′-trifluoro-[1,1′-biphenyl]-4-yl}acetamide] was below 0.5 µM; that for `CC(C)(O)c1cc(CN(C(=O)Cc2ccc(-c3ccc(F)c(F)c3)cc2F)C2C=CS(=O)(=O)C2)ccn1` (stereo not shown) [I-32, N-(1,1-dioxo-2,3-dihydro-1lambda6-thiophen-3-yl)-N-{[2-(2-hydroxypropan-2-yl)pyridin-4-yl]methyl}-2-{3,3′,4′-trifluoro-[1,1′-biphenyl]-4-yl}acetamide] was below 0.5 µM; that for `COc1cc(CN(C(=O)C(C(=O)N(C)C)c2ccc(-c3ccc(F)cc3)cc2F)C2C=CS(=O)(=O)C2)ccn1` (single isomer, unassigned) [I-235, (2R**)-2-{3,4′-difluoro-[1,1′-biphenyl]-4-yl}-N-[(3R*)-1,1-dioxo-2,3-dihydro-1lambda6-thiophen-3-yl]-N-[(2-methoxypyridin-4-yl)methyl]-N′,N′-dimethylpropanediamide] was 5 to 10 µM.
For `COc1cc(CN(C(=O)Cn2ncc3cc(C(F)(F)C(F)(F)F)ccc32)[C@@H]2C=CS(=O)(=O)C2)ccn1` [I-770, N-[(3R)-1,1-dioxo-2,3-dihydro-1lambda6-thiophen-3-yl]-N-[(2-methoxypyridin-4-yl)methyl]-2-[5-(1,1,2,2,2-pentafluoroethyl)-1H-indazol-1-yl]acetamide], the IC50 is 0.5 to 5 µM.
The value for `CC(C(=O)N(Cc1ccnc(C(C)(C)O)c1)[C@@H]1C=CS(=O)(=O)C1)n1ccc(-c2ccc(F)c(F)c2)cc1=O` (single isomer, unassigned) [I-769] was below 0.5 µM.
The value for `O=C(Cn1cnc(-c2ccccc2)n1)N(Cc1ccncc1)C1C=CS(=O)(=O)C1` (stereo not shown) [I-420, N-(1,1-dioxo-2,3-dihydro-1lambda6-thiophen-3-yl)-2-(3-phenyl-1H-1,2,4-triazol-1-yl)-N-[(pyridin-4-yl)methyl]acetamide] was above 50 µM; that for `CN(C)C(=O)C(C(=O)N(Cc1nc(C2CC2)cs1)C1C=CS(=O)(=O)C1)c1ccc(S(F)(F)(F)(F)F)cc1` (stereo not shown) [I-107, N′-[(4-cyclopropyl-1,3-thiazol-2-yl)methyl]-N′-(1,1-dioxo-2,3-dihydro-1lambda6-thiophen-3-yl)-N,N-dimethyl-2-[4-(pentafluoro-lambda6-sulfanyl)phenyl]propanediamide] was 0.5 to 5 µM; that for `COc1cc(CN(C(=O)C(OCC#N)c2ccc(-c3ccc(F)c(F)c3)cc2F)[C@@H]2C=CS(=O)(=O)C2)ccn1` (single isomer, unassigned) [I-686, (2R*)-2-(cyanomethoxy)-N-[(3R)-1,1-dioxo-2,3-dihydro-1lambda6-thiophen-3-yl]-N-[(2-methoxypyridin-4-yl)methyl]-2-{3,3′,4′-trifluoro-[1,1′-biphenyl]-4-yl}acetamide] was 0.5 to 5 µM.
The value for `CC(=O)Nc1ccc(CN(C(=O)Cc2ccc(-n3cccc3)cc2)C2C=CS(=O)(=O)C2)cc1` (stereo not shown) [I-302, N-(1,1-dioxo-2,3-dihydro-1lambda6-thiophen-3-yl)-N-[(4-acetamidophenyl)methyl]-2-[4-(1H-pyrrol-1-yl)phenyl]acetamide] was 10 to 50 µM; that for `COC(C(=O)N(Cc1ccnc(C(C)(C)O)c1)C1C=CS(=O)(=O)C1)c1ccc(-c2ccc(F)cc2)cc1F` (single isomer, unassigned) [I-199, (2R*)-2-{3,4′-difluoro-[1,1′-biphenyl]-4-yl}-N-[(3R**)-1,1-dioxo-2,3-dihydro-1lambda6-thiophen-3-yl]-N-{[2-(2-hydroxypropan-2-yl)pyridin-4-yl]methyl}-2-methoxyacetamide] was 0.5 to 5 µM; that for `O=C(Cn1cc(-c2cc(F)c(F)c(F)c2)cn1)N(Cc1ccc(Cc2ccncc2)cc1)C1C=CS(=O)(=O)C1` (stereo not shown) [I-782, N-(1,1-dioxo-2,3-dihydro-1lambda6-thiophen-3-yl)-N-({4-[(pyridin-4-yl)methyl]phenyl}methyl)-2-[4-(3,4,5-trifluorophenyl)-1H-pyrazol-1-yl]acetamide] was below 0.5 µM.
As to `O=C(Cc1ccc(-n2cccc2)cc1Cl)N(Cc1ccncc1)C1C=CS(=O)(=O)C1` (stereo not shown) [I-208, 2-[2-chloro-4-(1H-pyrrol-1-yl)phenyl]-N-(1,1-dioxo-2,3-dihydro-1lambda6-thiophen-3-yl)-N-[(pyridin-4-yl)methyl]acetamide], the IC50 lay within 0.5 to 5 µM.
The value for `CS(=O)(=O)c1ccc(CN(C(=O)Cc2ccc(-n3cccc3)cc2)C2C=CS(=O)(=O)C2)cc1` (stereo not shown) [I-256, N-(1,1-dioxo-2,3-dihydro-1lambda6-thiophen-3-yl)-N-[(4-methanesulfonylphenyl)methyl]-2-[4-(1H-pyrrol-1-yl)phenyl]acetamide] was 5 to 10 µM.
As for `O=C(Cc1ccc(S(F)(F)(F)(F)F)cc1)N(Cc1cscn1)C1C=CS(=O)(=O)C1` (stereo not shown) [I-657, N-(1,1-dioxo-2,3-dihydro-1lambda6-thiophen-3-yl)-2-[4-(pentafluoro-lambda6-sulfanyl)phenyl]-N-[(1,3-thiazol-4-yl)methyl]acetamide], the figure is 0.5 to 5 µM; as for `CN(C)C(=O)C(C(=O)N(Cc1ccncc1)C1C=CS(=O)(=O)C1)c1ccc(-c2ccc(F)cc2)cc1` (single isomer, unassigned) [I-362, (2R**)-N′-[(3R*)-1,1-dioxo-2,3-dihydro-1lambda6-thiophen-3-yl]-2-{4′-fluoro-[1,1′-biphenyl]-4-yl}-N,N-dimethyl-N′-[(pyridin-4-yl)methyl]propanediamide], above 50 µM; as for `CC(C)(O)c1cc(CN(C(=O)Cc2ncc(-c3ccc(F)c(F)c3)cc2F)C2C=CS(=O)(=O)C2)ccn1` (single isomer, unassigned) [I-50, 2-(5-(3,4-difluorophenyl)-3-fluoropyridin-2-yl)-N-(1,1-dioxido-2,3-dihydrothiophen-3-yl)-N-((2-(2-hydroxypropan-2-yl)pyridin-4-yl)methyl)acetamide], below 0.5 µM.
As for `CC(C)(O)c1csc(CN(C(=O)Cn2cc(-c3cc(F)c(F)c(F)c3)cn2)C2C=CS(=O)(=O)C2)n1` (single isomer, unassigned) [I-799], the figure is 0.5 to 5 µM; as for `CNC(=O)C(C(=O)N(Cc1ccnc(OC)c1)[C@@H]1C=CS(=O)(=O)C1)c1ccc(-c2ccc(F)c(F)c2)cc1F` (single isomer, unassigned) [I-693, (2R*)-N′-[(3R)-1,1-dioxo-2,3-dihydro-1lambda6-thiophen-3-yl]-N′-[(2-methoxypyridin-4-yl)methyl]-N-methyl-2-{3,3′,4′-trifluoro-[1,1′-biphenyl]-4-yl}propanediamide], below 0.5 µM.
